{"source": "PubChem BioAssay AID1259411", "about": "(Chemical Carcinogenesis Research Information System (CCRIS), 2018)", "tested_on": "rodent carcinogenicity bioassays, tumor incidence", "test": "CCRIS carcinogenicity studies", "procedure,_shortened": "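Archive of carcinogenicity, mutagenicity, tumor promotion and tumor inhibition results drawn from journals, NCI reports and other sources, expert-reviewed; covers 1985-2011 and is no longer updated.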", "note": "The source made the active and inactive calls. How the calls were made is not given here."}
{"compound": "COc1ccc(OC)c(N=Nc2c(O)ccc3ccccc23)c1", "values": [{"measurement": "carcinogen call", "setting": "Species: MOUSE, Strain/Sex: C57 X 1F F1, Route: BLADDER IMPLANT, Dose: 0, 12.5% SUSPENSION IN PARAFFIN WAX (STUDY DURATION: 40 WK), Tumor Site: Type of Lesion: BLADDER: CARCINOMA", "value": "active; positive"}]}
{"compound": "O=P(OCCCl)(OCCCl)OCCCl", "values": [{"measurement": "carcinogen call", "setting": "Species: MOUSE, Strain/Sex: B6C3F1/FEMALE, Route: GAVAGE, Dose: 0, 175, 350 MG/KG IN CORN OIL 5 D/WK FOR 103 (STUDY DURATION: 104 WK), Dose: 0, 175, 350 MG/KG IN CORN OIL 5 D/WK FOR 103 (STUDY DURATION: 104 WK), Tumor Site: Type of Lesion: HARDERIAN GLAND: ADENOMA OR CARCINOMA", "value": "equivocal"}, {"measurement": "carcinogen call", "setting": "Species: MOUSE, Strain/Sex: B6C3F1/MALE, Route: GAVAGE, Dose: 0, 175, 350 MG/KG IN CORN OIL 5 D/WK FOR 103 (STUDY DURATION: 104 WK), Dose: 0, 175, 350 MG/KG IN CORN OIL 5 D/WK FOR 103 (STUDY DURATION: 104 WK), Tumor Site: Type of Lesion: KIDNEY (RENAL TUBULE): ADENOMA, CARCINOMA", "value": "equivocal"}, {"measurement": "carcinogen call", "setting": "Species: MOUSE, Strain/Sex: DDY/FEMALE, Route: ORAL, Dose: 0, 0.012, 0.06, 0.3, 1.5% IN DIET FOR 18 MO (STUDY DURATION: 18 MO), Dose: 0, 0.012, 0.06, 0.3, 1.5% IN DIET FOR 18 MO (STUDY DURATION: 18 MO), Tumor Site: Type of Lesion: HEMATOPOIETIC SYSTEM: LEUKEMIA, FORESTOMACH: PAPILLOMA, CARCINOMA", "value": "active; positive"}, {"measurement": "carcinogen call", "setting": "Species: MOUSE, Strain/Sex: DDY/MALE, Route: ORAL, Dose: 0, 0.012, 0.06, 0.3, 1.5% IN DIET FOR 18 MO (STUDY DURATION: 18 MO), Dose: 0, 0.012, 0.06, 0.3, 1.5% IN DIET FOR 18 MO (STUDY DURATION: 18 MO), Tumor Site: Type of Lesion: LIVER: HEPATOCELLULAR ADENOMA, HEPATOCELLULAR CARCINOMA, KIDNEY: RENAL CELL ADENOMA, RENAL CELL CARCINOMA", "value": "active; positive"}, {"measurement": "carcinogen call", "setting": "Species: MOUSE, Strain/Sex: SLC:DDY/FEMALE, Route: DERMAL, Dose: 0, 5, 50% IN ETHANOL 2/WK FOR 79 WK (STUDY DURATION: 18 MO), Dose: 0, 5, 50% IN ETHANOL 2/WK FOR 79 WK (STUDY DURATION: 18 MO)", "value": "inactive; negative"}, {"measurement": "carcinogen call", "setting": "Species: RAT, Strain/Sex: F344/FEMALE, Route: GAVAGE, Dose: 0, 44, 88 MG/KG IN CORN OIL 5 D/WK FOR 103 (STUDY DURATION: 104 WK), Dose: 0, 44, 88 MG/KG IN CORN OIL 5 D/WK FOR 103 (STUDY DURATION: 104 WK), Tumor Site: Type of Lesion: KIDNEY (RENAL TUBULE): ADENOMA", "value": "active; positive"}, {"measurement": "carcinogen call", "setting": "Species: RAT, Strain/Sex: F344/MALE, Route: GAVAGE, Dose: 0, 44, 88 MG/KG IN CORN OIL 5 D/WK FOR 103 (STUDY DURATION: 104 WK), Dose: 0, 44, 88 MG/KG IN CORN OIL 5 D/WK FOR 103 (STUDY DURATION: 104 WK), Tumor Site: Type of Lesion: KIDNEY (RENAL TUBULE): ADENOMA OR CARCINOMA, HEMATOPOIETIC SYSTEM: LEUKEMIA (MONONUCLEAR)", "value": "active; positive"}]}
{"compound": "[P]#[Ga]", "values": [{"measurement": "carcinogen call", "setting": "Species: MOUSE, Strain/Sex: ICR/MALE, Route: INTRAPERITONEAL, Dose: 0, 48, 480 MG/KG AS GALLIUM SUSPENDED IN OLIVE OIL ONCE (STUDY DURATION: 18 MO), Dose: 0, 48, 480 MG/KG AS GALLIUM SUSPENDED IN OLIVE OIL ONCE (STUDY DURATION: 18 MO)", "value": "inactive; negative"}, {"measurement": "carcinogen call", "setting": "Species: MOUSE, Strain/Sex: ICR/MALE, Route: SUBCUTANEOUS, Dose: 0, 48, 480 MG/KG AS GALLIUM SUSPENDED IN OLIVE OIL ONCE (STUDY DURATION: 18 MO), Dose: 0, 48, 480 MG/KG AS GALLIUM SUSPENDED IN OLIVE OIL ONCE (STUDY DURATION: 18 MO)", "value": "inactive; negative"}]}
{"compound": "Cc1cc(Cl)ccc1OCC(=O)O", "values": [{"measurement": "carcinogen call", "setting": "Species: MOUSE, Strain/Sex: B6C3F1/FEMALE, Route: ORAL, Dose: 0, 20, 100, 500 PPM IN DIET FOR 104 WK (STUDY DURATION: 104 WK), Dose: 0, 20, 100, 500 PPM IN DIET FOR 104 WK (STUDY DURATION: 104 WK)", "value": "inactive; negative"}, {"measurement": "carcinogen call", "setting": "Species: MOUSE, Strain/Sex: B6C3F1/MALE, Route: ORAL, Dose: 0, 20, 100, 500 PPM IN DIET FOR 104 WK (STUDY DURATION: 104 WK), Dose: 0, 20, 100, 500 PPM IN DIET FOR 104 WK (STUDY DURATION: 104 WK)", "value": "inactive; negative"}, {"measurement": "carcinogen call", "setting": "Species: NEWT, Route: IMMERSION, Dose: 0, 100, 200, 400 PPM 4 D/WK FOR 12 MO (STUDY DURATION: 24 MO), Dose: 0, 100, 200, 400 PPM 4 D/WK FOR 12 MO (STUDY DURATION: 24 MO)", "value": "inactive; negative"}, {"measurement": "carcinogen call", "setting": "Species: RAT, Strain/Sex: WISTAR/FEMALE, Route: ORAL, Dose: 0, 20, 80, 320 PPM IN DIET FOR 104 WK (STUDY DURATION: 104 WK), Dose: 0, 20, 80, 320 PPM IN DIET FOR 104 WK (STUDY DURATION: 104 WK)", "value": "inactive; negative"}, {"measurement": "carcinogen call", "setting": "Species: RAT, Strain/Sex: WISTAR/MALE, Route: ORAL, Dose: 0, 20, 80, 320 PPM IN DIET FOR 104 WK (STUDY DURATION: 104 WK), Dose: 0, 20, 80, 320 PPM IN DIET FOR 104 WK (STUDY DURATION: 104 WK)", "value": "inactive; negative"}]}
{"compound": "O=c1c(O[C@@H]2O[C@H]([C@H](O)CO)[C@H](O)[C@H]2O)c(-c2ccc(O)c(O)c2)oc2cc(O)cc(O)c12", "values": [{"measurement": "carcinogen call", "setting": "Species: RAT, Strain/Sex: F344 DUCRJ/FEMALE (50/GROUP), Route: ORAL, DIET, Dose: 119.2, 352.8 MG/KG DAILY FOR 104 WK (STUDY DURATION: 104 WK), TEST MATERIAL WAS ENZYMATICALLY MODIFIED, Dose: 119.2, 352.8 MG/KG DAILY FOR 104 WK (STUDY DURATION: 104 WK), TEST MATERIAL WAS ENZYMATICALLY MODIFIED, Tumor Site: Type of Lesion: NONE", "value": "inactive; negative"}, {"measurement": "carcinogen call", "setting": "Species: RAT, Strain/Sex: F344 DUCRJ/MALE (50/GROUP), Route: ORAL, DIET, Dose: 142.5, 431.1 MG/KG DAILY FOR 104 WK (STUDY DURATION: 104 WK), TEST MATERIAL WAS ENZYMATICALLY MODIFIED, Dose: 142.5, 431.1 MG/KG DAILY FOR 104 WK (STUDY DURATION: 104 WK), TEST MATERIAL WAS ENZYMATICALLY MODIFIED, Tumor Site: Type of Lesion: NONE", "value": "inactive; negative"}]}
{"compound": "O=NN1CC=CC[C@H]1c1cccnc1", "values": [{"measurement": "carcinogen call", "setting": "Species: RAT, Strain/Sex: F344/FEMALE, Route: SUBCUTANEOUS, Dose: 0, 1, 3, 9 MMOL/KG BW (TOTAL DOSE) WITH SUBDOSES GIVEN 3/WK FOR 20 WK WITH A 2 WK INTERRUPTION AFTER 7 WK (STUDY DURATIO, Dose: 0, 1, 3, 9 MMOL/KG BW (TOTAL DOSE) WITH SUBDOSES GIVEN 3/WK FOR 20 WK WITH A 2 WK INTERRUPTION AFTER 7 WK (STUDY DURATIO", "value": "inactive; negative"}, {"measurement": "carcinogen call", "setting": "Species: RAT, Strain/Sex: F344/MALE, Route: SUBCUTANEOUS, Dose: 0, 1, 3, 9 MMOL/KG BW (TOTAL DOSE) WITH SUBDOSES GIVEN 3/WK FOR 20 WK WITH A 2 WK INTERRUPTION AFTER 7 WK (STUDY DURATIO, Dose: 0, 1, 3, 9 MMOL/KG BW (TOTAL DOSE) WITH SUBDOSES GIVEN 3/WK FOR 20 WK WITH A 2 WK INTERRUPTION AFTER 7 WK (STUDY DURATIO", "value": "inactive; negative"}]}
{"compound": "CO[C@@]12[C@H](COC(N)=O)C3=C(C(=O)C(C)=C(N)C3=O)N1C[C@@H]1N[C@@H]12", "values": [{"measurement": "carcinogen call", "setting": "Species: RAT, Route: INTRAPERITONEAL, Tumor Site: Type of Lesion: PERITONEAL CAVITY", "value": "active; positive"}, {"measurement": "carcinogen call", "setting": "Species: RAT, Route: INTRAVENOUS, Tumor Site: Type of Lesion: PERITONEAL CAVITY, MAMMARY GLAND, INTESTINES, Tumor Site: Type of Lesion: PERITONEAL CAVITY, MAMMARY GLAND, INTESTINES", "value": "active; positive"}]}
{"compound": "CCCc1ccc2c(c1)OCO2", "values": [{"measurement": "carcinogen call", "setting": "Species: MOUSE, Route: ORAL, Tumor Site: Type of Lesion: LIVER, LUNG", "value": "active; positive"}, {"measurement": "carcinogen call", "setting": "Species: RAT, Route: ORAL, Tumor Site: Type of Lesion: ESOPHAGUS", "value": "active; positive"}]}
{"compound": "CNC[C@H](O)c1cccc(O)c1", "values": [{"measurement": "carcinogen call", "setting": "Species: MOUSE, Strain/Sex: B6C3F1/FEMALE, Route: ORAL, Dose: 0, 1250, 2500 PPM IN DIET FOR 103 WK, Dose: 0, 1250, 2500 PPM IN DIET FOR 103 WK", "value": "inactive; negative"}, {"measurement": "carcinogen call", "setting": "Species: MOUSE, Strain/Sex: B6C3F1/MALE, Route: ORAL, Dose: 0, 1250, 2500 PPM IN DIET FOR 103 WK, Dose: 0, 1250, 2500 PPM IN DIET FOR 103 WK", "value": "inactive; negative"}, {"measurement": "carcinogen call", "setting": "Species: RAT, Strain/Sex: F344/FEMALE, Route: ORAL, Dose: 0, 620, 1250 PPM IN DIET FOR 103 WK, Dose: 0, 620, 1250 PPM IN DIET FOR 103 WK", "value": "inactive; negative"}, {"measurement": "carcinogen call", "setting": "Species: RAT, Strain/Sex: F344/MALE, Route: ORAL, Dose: 0, 620, 1250 PPM IN DIET FOR 103 WK, Dose: 0, 620, 1250 PPM IN DIET FOR 103 WK", "value": "inactive; negative"}]}
